The experiment relates to SARS-CoV-2 dimerization loop (DL) RNA. Format: binding. Conditions: 2.5 μM peptide; 0.010 M HEPES pH 7.0, 0.30 M NaCl; average of two replicates.
Consider “MGCAQLRKQL(pCaaF)Y (sidechain bridge or staple) [Peptide K1A]”, for which the “SPR response relative to parent peptide MG-FSS-m1” value is given as “comparable”.

For the substance “MGCKALRKQL(pCaaF)Y (sidechain bridge or staple) [Peptide Q2A]”, the “SPR response relative to parent peptide MG-FSS-m1” value was “substantially lower”.

As to “MGCKQARKQL(pCaaF)Y (sidechain bridge or staple) [Peptide L3A]”, the “SPR response relative to parent peptide MG-FSS-m1” value is “substantially lower”.

On to “MGCKQLAKQL(pCaaF)Y (sidechain bridge or staple) [Peptide R4A]”, for which the “SPR response relative to parent peptide MG-FSS-m1” value is on record as “comparable”.

“MGCKQLRAQL(pCaaF)Y (sidechain bridge or staple) [Peptide K5A]”: the “SPR response relative to parent peptide MG-FSS-m1” value is “comparable”.

Regarding “MGCKQLRKAL(pCaaF)Y (sidechain bridge or staple) [Peptide Q6A]”, the “SPR response relative to parent peptide MG-FSS-m1” value is recorded as “substantially higher”.

On to “MGCKQLRKQA(pCaaF)Y (sidechain bridge or staple) [Peptide L7A]”, for which the “SPR response relative to parent peptide MG-FSS-m1” value was “lower”.

The values above are taken from article PMC11575553 (Chemical Science, 2024).
